Test results published in patent US9718790B2, “Triazine derivative and pharmaceutical composition having an analgesic activity comprising the same” (SHIONOGI & CO., LTD., priority 2010, dated 2017).

Target: human P2X3 receptor (Homo sapiens (Human), UniProt P56373)
Assay: Evaluation of human P2X3 receptor inhibitory activity (Fluo-3 calcium fluorescence, FDSS 3000, ATP stimulation);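 note: stimulus was 50 nM ATP with fluorescence followed for 3 min, and the response per well was peak post-ATP fluorescence divided by the reading at measurement start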
Assay type: cell-based
Details: C6BU-1 cells stably expressing human P2X3 receptor

Sequence of human P2X3 receptor (P56373 whole entry): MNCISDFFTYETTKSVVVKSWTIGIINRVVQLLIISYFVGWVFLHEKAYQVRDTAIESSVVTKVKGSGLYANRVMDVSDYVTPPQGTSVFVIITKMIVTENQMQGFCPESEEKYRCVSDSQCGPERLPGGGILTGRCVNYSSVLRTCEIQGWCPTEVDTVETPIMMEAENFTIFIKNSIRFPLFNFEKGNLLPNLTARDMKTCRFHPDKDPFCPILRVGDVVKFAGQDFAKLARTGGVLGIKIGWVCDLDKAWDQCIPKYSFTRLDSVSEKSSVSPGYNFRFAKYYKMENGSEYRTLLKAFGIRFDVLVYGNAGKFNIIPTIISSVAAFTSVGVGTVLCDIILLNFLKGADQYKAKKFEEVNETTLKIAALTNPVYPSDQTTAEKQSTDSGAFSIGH

Structure (SMILES) | IC50 [nM]
C[C@H](C(=O)O)[C@@H](C)n1c(=O)[nH]/c(=N\c2ccc(OCC3CC3)cc2)n(Cc2ccc(Cl)cc2)c1=O [Compound I-1344] | 33
COC(=O)[C@@H](C)Cn1c(=O)[nH]/c(=N\c2cccc(C(F)(F)F)c2)n(Cc2ccc(Cl)cc2)c1=O [Compound I-0622] | 30
CC(C)Oc1ccc(/N=c2\[nH]c(=O)n(CCCN/C(=N\C#N)Oc3ccccc3)c(=O)n2Cc2ccc(Cl)cc2)cc1F [Compound I-0613] | 11
COC(=O)[C@@H](C)Cn1c(=O)[nH]/c(=N\c2ccc3c(c2)CCCC3)n(Cc2ccc(Cl)cc2)c1=O [Compound I-0791] | 266
CCn1c(=O)[nH]/c(=N\c2ccc(Oc3cccc(C(=O)OC)n3)cc2)n(Cc2ccc(C)cc2)c1=O [Compound I-2180] | 11
Cc1ccc(Cn2c(=O)n(CCCC(=O)O)c(=O)[nH]/c2=N\c2ccc(Oc3ccnc(C)c3)cc2)cc1 [Compound I-1405] | 26
CC(C)Oc1ccc(/N=c2\[nH]c(=O)n(CC(=O)NC3CCOCC3)c(=O)n2Cc2ccc(Cl)cc2)cc1Cl [Compound I-0663] | 5
COC(=O)[C@@H](C)Cn1c(=O)[nH]/c(=N\c2ccc(CC(C)C)c(OC)c2)n(Cc2ccc(Cl)cc2)c1=O [Compound I-1247] | 28
CCOC(=O)CCn1c(=O)[nH]/c(=N\c2ccc(CC(C)C)c(Cl)c2)n(Cc2ccc(C)cc2)c1=O [Compound I-1426] | 50
C[C@H](CO)Cn1c(=O)[nH]/c(=N\c2ccc3oc(CO)cc3c2)n(Cc2ccc(Cl)cc2)c1=O [Compound I-1970] | 82
COC(=O)[C@@H](C)Cn1c(=O)[nH]/c(=N\c2ccc(/C=C/C3CC3)cc2)n(Cc2ccc(C)cc2)c1=O [Compound I-1193] | 40
CCC(=O)Nc1cc(Oc2ccc(/N=c3\[nH]c(=O)n(CC)c(=O)n3Cc3ccc(Cl)cc3)cc2)ccn1 [Compound I-2217] | 6
COC(=O)[C@@H](C)Cn1c(=O)[nH]/c(=N\c2ccc(Oc3ccnc(O)c3)cc2)n(Cc2ccc(C)cc2)c1=O [Compound I-1432] | 2
O=C(O)CCn1c(=O)[nH]/c(=N\c2ccc(Oc3cccnc3)cc2)n(Cc2ccc(Cl)cc2)c1=O [Compound I-1206] | 43
CCn1c(=O)[nH]/c(=N\c2ccc(Oc3ccc(F)c(C(=O)OC)c3)cc2)n(Cc2ccc(Cl)cc2)c1=O [Compound I-2057] | 21
COC(=O)CCCn1c(=O)[nH]/c(=N\c2ccc(Oc3ccnc(C)c3)cc2)n(Cc2ccc(Cl)cc2)c1=O [Compound I-1396] | 4
COC(=O)[C@@H](C)Cn1c(=O)[nH]/c(=N\c2ccc(NC(C)=O)cc2)n(Cc2ccc(C)cc2)c1=O [Compound I-1415] | 532
COC(=O)[C@@H](C)[C@@H](C)n1c(=O)[nH]/c(=N\c2ccc(OC(C)C)c(C)c2)n(Cc2ccc(C)cc2)c1=O [Compound I-1312] | 45
Cc1ccc(Cn2c(=O)n(CCCC(=O)O)c(=O)[nH]/c2=N\c2ccc3nc(C)sc3c2)cc1 [Compound I-2124] | 27
CC(C)Oc1ccc(/N=c2\[nH]c(=O)n(CCS(N)(=O)=O)c(=O)n2Cc2ccc(Cl)cc2)cc1F [Compound I-0693, 1-(4-chlorobenzyl)-6-(3-fluoro-4-isopropoxyphenylimino)-3-(2-sulfamoylethyl)-1,3,5-triazinane-2,4-dion] | 13
CC(C)Oc1ccc(/N=c2\[nH]c(=O)n(Cc3cc[nH]c(=O)c3)c(=O)n2Cc2ccc(Cl)cc2)cc1F [Compound I-0650] | 20
C[C@@H](Cn1c(=O)[nH]/c(=N\c2ccc(OC(F)F)c(F)c2)n(Cc2ccc(Cl)cc2)c1=O)C(=O)O [Compound I-0658] | 109
COC(=O)[C@H](C)[C@H](C)n1c(=O)[nH]/c(=N\c2ccc(N3CCCCC3)cc2)n(Cc2ccc(C)cc2)c1=O [Compound I-1381] | 20

Same assay, conditions: C6BU-1 cells stably expressing human P2X3 receptor, Fluo-3 fluorescence, FDSS 3000

Structure (SMILES) | IC50 [nM]
CCCOc1ccc(/N=c2\[nH]c(=O)n([C@@H](C)[C@@H](C)C(=O)O)c(=O)n2Cc2ccc(Cl)cc2)cc1 [Compound I-0920] | 37
CNC(=O)CCn1c(=O)[nH]/c(=N\c2ccc(Oc3ccc(O)nc3)cc2)n(Cc2ccc(Cl)cc2)c1=O [Compound I-1600] | 11
COC(=O)[C@@H](C)Cn1c(=O)[nH]/c(=N\c2ccc(C3=CCCC3)cc2)n(Cc2ccc(C)cc2)c1=O [Compound I-1083] | 125
Cc1cc(Oc2ccc(/N=c3\[nH]c(=O)n(C[C@H](C)C(=O)O)c(=O)n3Cc3ccc(Cl)cc3)cc2)no1 [Compound I-1662] | 11
O=c1[nH]/c(=N\c2ccc(Oc3ccnc(O)c3)cc2)n(Cc2ccc(Cl)cc2)c(=O)n1CCO [Compound I-1712] | 4
CCOC(=O)CCn1c(=O)[nH]/c(=N\c2ccc(OCC3CC3)c(Cl)c2)n(Cc2ccc(C)cc2)c1=O [Compound I-0957] | 25
COC(=O)[C@@H](C)Cn1c(=O)[nH]/c(=N\c2ccc(OC(F)(F)F)c(Cl)c2)n(Cc2ccc(C)cc2)c1=O [Compound I-1027] | 41
Cc1ccc(Cn2c(=O)n(C[C@H](C)C(=O)O)c(=O)[nH]/c2=N\c2ccc(N3CCCCC3)cc2)cc1 [Compound I-1093] | 38
CC[C@@H](C)Oc1ccc(/N=c2\[nH]c(=O)n(C[C@H](C)C(=O)O)c(=O)n2Cc2ccc(Cl)cn2)cc1Cl [Compound I-1626] | 18
COC(=O)[C@H](C)[C@H](C)n1c(=O)[nH]/c(=N\c2ccc(OCC3CC3)c(Cl)c2)n(Cc2ccc(C)cc2)c1=O [Compound I-0969] | 47
CC[C@@H](C)Oc1ccc(/N=c2\[nH]c(=O)n([C@H](C)CC(=O)O)c(=O)n2Cc2ccc(C)cc2)cc1C [Compound I-0937] | 22
COC(=O)[C@@H](C)Cn1c(=O)[nH]/c(=N\c2ccc(CC(C)C)c(C)c2)n(Cc2ccc(C)cc2)c1=O [Compound I-1043] | 10
CCc1oc2ccc(/N=c3\[nH]c(=O)n(C[C@@H](C)NC(C)=O)c(=O)n3Cc3ccc(Cl)cc3)cc2c1C [Compound I-1673] | 14
Cc1ccc(Cn2c(=O)n(CC3(CC(=O)O)CC3)c(=O)[nH]/c2=N\c2ccc(OC(C)C)c(C)c2)cc1 [Compound I-0984] | 21
CCc1oc2ccc(/N=c3\[nH]c(=O)n(CCCNC(C)=O)c(=O)n3Cc3ccc(Cl)cc3)cc2c1C [Compound I-1568] | 10
CCCOc1ccc(/N=c2\[nH]c(=O)n(CC3(C(=O)O)CC3)c(=O)n2Cc2ccc(Cl)cc2)cc1 [Compound I-0925] | 59

Same assay, conditions: human P2X3 receptor, Test Example 1

Structure (SMILES) | IC50 [nM]
CCn1c(=O)[nH]/c(=N\c2ccc(Oc3ncccc3C(N)=O)cc2)n(Cc2ccc(Cl)cc2)c1=O [Compound I-2365] | 211
CCn1c(=O)[nH]/c(=N\c2ccc(Oc3ccc(C#N)cn3)cc2)n(Cc2ccc(C)cc2)c1=O [Compound I-2395] | 4
CCc1oc2ccc(/N=c3\[nH]c(=O)n(CCC(=O)O)c(=O)n3Cc3ccc(Cl)cc3)cc2c1C [Compound I-1507] | 15
Cn1c(=O)[nH]/c(=N\c2ccc(Oc3nc(C(N)=O)cs3)cc2)n(Cc2ccc(Cl)cc2)c1=O [Compound I-2415] | 9
CCn1c(=O)[nH]/c(=N\c2ccc(Oc3ccc(F)c(C(N)=O)c3)cc2)n(Cc2ccc(Cl)cc2)c1=O [Compound I-2235] | 4
O=c1[nH]/c(=N\c2ccc(Oc3ccon3)c(F)c2)n(Cc2ccc(Cl)cc2)c(=O)n1CCO [Compound I-2438] | 7
CCOC(=O)C1(Cn2c(=O)[nH]/c(=N\c3ccc4nc(C)sc4c3)n(Cc3ccc(C)cc3)c2=O)CC1 [Compound I-1545] | 3
CCn1c(=O)[nH]/c(=N\c2ccc(Oc3ccc(C(N)=O)cc3)nc2)n(Cc2ccc(Cl)cc2)c1=O [Compound I-2620] | 110
CCn1c(=O)[nH]/c(=N\c2ccc(Oc3ccn[nH]3)cc2)n(Cc2ccc(Cl)cc2)c1=O [Compound I-2455] | 63
CCn1c(=O)[nH]/c(=N\c2ccc(Oc3cccc(/C=C/C(=O)OC)c3)cc2)n(Cc2ccc(Cl)cc2)c1=O [Compound I-2224] | 33
CNC(=O)[C@H](C)n1c(=O)[nH]/c(=N\c2ccc(Oc3ccon3)cc2)n(Cc2ccc(Cl)cc2)c1=O [Compound I-2535] | 44
CCn1c(=O)[nH]/c(=N\c2ccc(Oc3cncc(C)n3)cc2)n(Cc2ccc(Cl)cc2)c1=O [Compound I-2638] | 15
CCn1c(=O)[nH]/c(=N\c2ccc(Oc3cncc(C(=O)O)n3)cc2)n(Cc2ccc(Cl)cc2)c1=O [Compound I-2282] | < 4
CC(C)Oc1ccc(-n2c(NCc3ccc(Cl)cc3)nc(=S)n(C(C)C)c2=O)cc1 [Compound I-2255] | 543
CNC(=O)[C@H](CCO)n1c(=O)[nH]/c(=N\c2ccc(OC(C)C)c(C)c2)n(Cc2ccc(Cl)cc2)c1=O [Compound I-0869] | 574
CC(=O)Nc1ccc(Oc2ccc(/N=c3\[nH]c(=O)n(C)c(=O)n3Cc3ccc(Cl)cc3)cc2)cn1 [Compound I-2429] | 5
CCn1c(=O)[nH]/c(=N\c2ccc(Oc3ccsn3)cc2)n(C[C@H]2CC[C@H](C)CC2)c1=O [Compound I-2350] | 2
CCn1c(=O)[nH]/c(=N\c2ccc(Oc3ccc(C(N)=O)nc3)cc2)n(Cc2ccc(Cl)cn2)c1=O [Compound I-2279] | 33
Cc1cc(Oc2ccc(/N=c3\[nH]c(=O)n(C[C@H](O)CO)c(=O)n3Cc3ccc(Cl)cc3)cc2)n(C)n1 [Compound I-2371] | 102
CCn1c(=O)[nH]/c(=N\c2ccc(Oc3cccc(C(N)=O)n3)cc2)n(Cc2ccc(Cl)cn2)c1=O [Compound I-2240] | 21
CCn1c(=O)[nH]/c(=N\c2ccc(Oc3cccc(/C=C/C(=O)O)c3)cc2)n(Cc2ccc(C)cc2)c1=O [Compound I-2344] | 3
CCn1c(=S)[nH]/c(=N\c2ccc(Oc3ccnc(O)c3)cc2)n(Cc2ccc(Cl)cc2)c1=O [Compound I-2258] | 3
COC(=O)CCn1c(=O)[nH]/c(=N\c2ccc(Oc3ccc(C#N)cn3)cc2)n(Cc2ccc(C)cc2)c1=O [Compound I-2636] | 2
COC(=O)C[C@@H](C)n1c(=O)[nH]/c(=N\c2ccc(OC(C)C)c(Cl)c2)n(Cc2ccc(C)cc2)c1=O [Compound I-0875] | 14
CC(CO)(CO)Cn1c(=O)[nH]/c(=N\c2ccc(OCC3CC3)cc2)n(Cc2ccc(Cl)cc2)c1=O [Compound I-2616] | 12
